Experimental data as given in US9211310B2, “Use of a Chinese medicine composition in preparing medicaments for treating secondary prevention of myocardial infarction” (TASLY PHARMACEUTICAL GROUP CO., LTD, priority 2010, dated 2015).

System: patients after acute myocardial infarction
Assay: TCM symptom score, total and single (chest pain, chest tightness, short breath, fatigue, palpitation, spontaneous perspiration, pale complexion), same clinical trial
Assay type: in vivo, human
Set-up: total score of TCM symptom, Mean / total score of TCM symptom, Min / total score of TCM symptom, Max / total score of TCM symptom, Md / change of total score of TCM symptom, Mean / change of total score of TCM symptom, Max / change of total score of TCM symptom, Md: scale not given here
Description: 3508 patients who were in accordance with the diagnostic standards of AMI for 28 days to 2 years and differentiated as Qi deficiency and blood stagnation syndrome by TCM were studied. 0.5 g Chinese medicine composition prepared by the method of EXAMPLE 1 (Coded as QSYQ) was administrated half an hour after meal, 3 times per day.
They included the overall survival time, angina pectoris score, TCM symptom score and life quality score, where angina pectoris score, TCM symptom score and life quality score were evaluated at randomization, in 1st, 3rd, 6th, 9th, 12th month after treatment and 18th month after follow-up.
The analysis method referred to the angina pectoris score.

[1] = PP, 12 months after treatment-treatment
[2] = PP, 1 month after treatment-baseline

CC(=O)Oc1ccccc1C(=O)O [Control group, aspirine]
chest tightness score 2, percent of patients (Follow-up, FAS): (0.07%) | chest tightness score 3, number of patients (Follow-up, FAS): 479 | chest tightness score 3, percent of patients (Follow-up, FAS): (33.57%) | chest tightness score 6, number of patients (Follow-up, FAS): 192 | chest tightness score 6, percent of patients (Follow-up, FAS): (13.45%) | chest tightness score 9, number of patients (Follow-up, FAS): 1 | chest tightness score 9, percent of patients (Follow-up, FAS): (0.07%) | chest pain score 0, number of patients (Follow-up, PP): 733 | chest pain score 0, percent of patients (Follow-up, PP): (52.62%) | chest pain score 2, number of patients (Follow-up, PP): 1 | chest pain score 2, percent of patients (Follow-up, PP): (0.07%) | chest pain score 3, number of patients (Follow-up, PP): 472 | chest pain score 3, percent of patients (Follow-up, PP): (33.88%) | chest pain score 6, number of patients (Follow-up, PP): 186 | chest pain score 6, percent of patients (Follow-up, PP): (13.35%) | chest pain score 9, number of patients (Follow-up, PP): 1 | chest pain score 9, percent of patients (Follow-up, PP): (0.07%) | chest tightness score 0, number of patients (Follow-up, PP): 733 | chest tightness score 0, percent of patients (Follow-up, PP): (52.62%) | chest tightness score 2, number of patients (Follow-up, PP): 1 | chest tightness score 2, percent of patients (Follow-up, PP): (0.07%) | chest tightness score 3, number of patients (Follow-up, PP): 472 | chest tightness score 3, percent of patients (Follow-up, PP): (33.88%) | chest tightness score 6, number of patients (Follow-up, PP): 186 | chest tightness score 6, percent of patients (Follow-up, PP): (13.35%) | chest tightness score 9, number of patients (Follow-up, PP): 1 | chest tightness score 9, percent of patients (Follow-up, PP): (0.07%) | change of short breath 0, % of patients [1]: (53.11%) | change of short breath 2, % of patients [1]: (36.17%) | change of short breath 2, number of patients [1]: 506 | change of short breath 4, % of patients [1]: (4.50%) | change of short breath 4, number of patients [1]: 63 | change of short breath 6, % of patients [1]: (0.79%) | change of short breath 6, number of patients [1]: 11 | change of short breath −2, % of patients [1]: (5.36%) | change of short breath −2, number of patients [1]: 75 | change of short breath −4, % of patients [1]: (0.07%) | change of short breath −4, number of patients [1]: 1 | distribution of total score of TCM symptom: Medium, number of patients (PP, 1 month after treatment): 600 | distribution of total score of TCM symptom: Medium, percentage of patients (PP, 1 month after treatment): (41.04%) | distribution of total score of TCM symptom: Mild, number of patients (PP, 1 month after treatment): 847 | distribution of total score of TCM symptom: Mild, percentage of patients (PP, 1 month after treatment): (57.93%) | distribution of total score of TCM symptom: Severe, number of patients (PP, 1 month after treatment): 15 | distribution of total score of TCM symptom: Severe, percentage of patients (PP, 1 month after treatment): (1.03%) | fatigue score 0, % of patients (PP, 1 month after treatment): (23.62%) | fatigue score 0, number of patients (PP, 1 month after treatment): 346 | fatigue score 2, % of patients (PP, 1 month after treatment): (60.75%) | fatigue score 2, number of patients (PP, 1 month after treatment): 890 | fatigue score 4, % of patients (PP, 1 month after treatment): (14.40%) | fatigue score 4, number of patients (PP, 1 month after treatment): 211 | fatigue score 6, % of patients (PP, 1 month after treatment): (1.23%) | fatigue score 6, number of patients (PP, 1 month after treatment): 18 | pale complexion score 0, number of patients (PP, 1 month after treatment): 613 | pale complexion score 0, percent of patients (PP, 1 month after treatment): (41.81%) | pale complexion score 1, number of patients (PP, 1 month after treatment): 615 | pale complexion score 1, percent of patients (PP, 1 month after treatment): (41.95%) | pale complexion score 2, number of patients (PP, 1 month after treatment): 211 | pale complexion score 2, percent of patients (PP, 1 month after treatment): (14.39%) | pale complexion score 3, number of patients (PP, 1 month after treatment): 27 | pale complexion score 3, percent of patients (PP, 1 month after treatment): (1.84%) | palpitation score 0, number of patients (PP, 1 month after treatment): 353 | palpitation score 0, percent of patients (PP, 1 month after treatment): (24.11%) | palpitation score 1, number of patients (PP, 1 month after treatment): 1 | palpitation score 1, percent of patients (PP, 1 month after treatment): (0.07%) | palpitation score 2, number of patients (PP, 1 month after treatment): 713 | palpitation score 2, percent of patients (PP, 1 month after treatment): (48.70%) | palpitation score 4, number of patients (PP, 1 month after treatment): 351 | palpitation score 4, percent of patients (PP, 1 month after treatment): (23.98%) | palpitation score 6, number of patients (PP, 1 month after treatment): 46 | palpitation score 6, percent of patients (PP, 1 month after treatment): (3.14%) | short breath score 0, % of patients (PP, 1 month after treatment): (20.68%) | short breath score 0, number of patients (PP, 1 month after treatment): 303 | short breath score 3, % of patients (PP, 1 month after treatment): (53.72%) | short breath score 3, number of patients (PP, 1 month after treatment): 787 | short breath score 6, % of patients (PP, 1 month after treatment): (24.91%) | short breath score 6, number of patients (PP, 1 month after treatment): 365 | short breath score 9, % of patients (PP, 1 month after treatment): (0.68%) | short breath score 9, number of patients (PP, 1 month after treatment): 10 | spontaneous perspiration score 0, number of patients (PP, 1 month after treatment): 518 | spontaneous perspiration score 0, percent of patients (PP, 1 month after treatment): (35.36%) | spontaneous perspiration score 1, number of patients (PP, 1 month after treatment): 738 | spontaneous perspiration score 1, percent of patients (PP, 1 month after treatment): (50.38%) | spontaneous perspiration score 2, number of patients (PP, 1 month after treatment): 195 | spontaneous perspiration score 2, percent of patients (PP, 1 month after treatment): (13.31%) | spontaneous perspiration score 3, number of patients (PP, 1 month after treatment): 14 | spontaneous perspiration score 3, percent of patients (PP, 1 month after treatment): (0.96%) | total score of TCM symptom, Max (PP, 1 month after treatment): 34.00 | total score of TCM symptom, Md (PP, 1 month after treatment): 11.00 | total score of TCM symptom, Mean (PP, 1 month after treatment): 11.93 | total score of TCM symptom, Min (PP, 1 month after treatment): 0.00 | change of fatigue 0, % of patients [2]: (72.24%) | change of fatigue 0, number of patients [2]: 1054 | change of fatigue 1, % of patients [2]: (0.07%) | change of fatigue 1, number of patients [2]: 1 | change of fatigue 2, % of patients [2]: (17.82%) | change of fatigue 2, number of patients [2]: 260 | change of fatigue 4, % of patients [2]: (2.40%) | change of fatigue 4, number of patients [2]: 35 | change of fatigue 6, % of patients [2]: (0.82%) | change of fatigue 6, number of patients [2]: 12 | change of fatigue −2, % of patients [2]: (5.96%) | change of fatigue −2, number of patients [2]: 87 | change of fatigue −4, % of patients [2]: (0.62%) | change of fatigue −4, number of patients [2]: 9 | change of fatigue −6, % of patients [2]: (0.07%) | change of fatigue −6, number of patients [2]: 1 | change of pale complexion 0, number of patients [2]: 1275 | change of pale complexion 0, percent of patients [2]: (87.45%) | change of pale complexion 1, number of patients [2]: 131 | change of pale complexion 1, percent of patients [2]: (8.98%) | change of pale complexion −1, number of patients [2]: 52 | change of pale complexion −1, percent of patients [2]: (3.57%) | change of palpitation 0, number of patients [2]: 1051 | change of palpitation 0, percent of patients [2]: (71.99%) | change of palpitation 1, number of patients [2]: 295 | change of palpitation 1, percent of patients [2]: (20.21%) | change of palpitation 2, number of patients [2]: 22 | change of palpitation 2, percent of patients [2]: (1.51%) | change of palpitation 3, number of patients [2]: 4 | change of palpitation 3, percent of patients [2]: (0.27%) | change of palpitation −1, number of patients [2]: 87 | change of palpitation −1, percent of patients [2]: (5.96%) | change of palpitation −2, number of patients [2]: 1 | change of palpitation −2, percent of patients [2]: (0.07%)
